Source: patent US20160046597A1, “RORC2 INHIBITORS AND METHODS OF USE THEREOF” (PFIZER INC., priority 2013, published 2016)

Biological target: T1, RORC2 ligand binding domain (6-His-RORC2 LBD) (Homo sapiens, UniProt P51449)
T1 construct: made in house; host or cells: E. coli
T1 sequence (P51449 269-508 limits assumed): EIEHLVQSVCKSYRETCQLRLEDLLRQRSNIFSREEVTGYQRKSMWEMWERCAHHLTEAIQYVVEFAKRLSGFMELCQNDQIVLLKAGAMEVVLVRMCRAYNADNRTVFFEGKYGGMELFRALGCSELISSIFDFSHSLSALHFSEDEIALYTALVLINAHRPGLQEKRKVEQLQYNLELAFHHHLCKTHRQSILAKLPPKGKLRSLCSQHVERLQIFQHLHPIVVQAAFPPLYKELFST
Assay: Co-activator recruitment by TR-FRET (RORC2 FRET)
Assay type: biochemical
Conditions: 6.3 nM RORC2 LBD, 200 nM SRC1-2 coactivator peptide, 3 hours room temperature

SMILES | IC50 [nM]
CC(C)c1cnc(N2CCC(c3cn(C)c4ccc(NC(=O)c5cccc(C#N)c5)cc34)CC2)nc1 [Example 80] | 259
Cc1cnc(N2CCC(c3cn(C)c4ccc(NC(=O)c5cccc(C#N)c5)cc34)CC2)nc1 [Example 81, 3-cyano-N-(1-methyl-3-(1-(5-methylpyrimidin-2-yl)piperidin-4-yl)-1H-indol-5-yl)benzamide] | 335
CC(C)c1cnc(N2CCC(c3cn(C)c4ccc(NC(=O)c5cccc(C#N)c5)cc34)CC2)nc1 [Example 82, 3-cyano-N-(3-[1-(5-isopropylpyrimidin-2-yl)piperidin-4-yl]-1-methyl-1H-indol-5-yl)benzamide] | 3960
N#Cc1cccc(C(=O)Nc2ccc3onc(C4CCN(C(=O)C5CCCC5)CC4)c3c2)c1 [Example 83, 3-cyano-N-(3-(1-(cyclopentanecarbonyl)piperidin-4-yl)benzo[d]isoxazol-5-yl)benzamide] | 23.4
N#Cc1cccc(C(=O)Nc2ccc3cnn(C4CCN(C(=O)C5CCCC5)CC4)c3c2)c1 [Example 84, 3-cyano-N-(1-(1-(cyclopentanecarbonyl)piperidin-4-yl)-1H-indazol-6-yl)benzamide] | 214
N#Cc1cccc(C(=O)Nc2ccc3[nH]cc(C4CCN(C(=O)NC5CCCC5)CC4)c3c2)c1 [Example 85, 4-(5-(3-cyanobenzamido)-1H-indol-3-yl)-N-cyclopentylpiperidine-1-carboxamide] | 859
N#Cc1cccc(C(=O)Nc2ccc3[nH]cc(C4CCN(S(=O)(=O)C5CCCC5)CC4)c3c2)c1 [Example 86, 3-cyano-N-(3-(1-(cyclopentylsulfonyl)piperidin-4-yl)-1H-indol-5-yl)benzamide] | > 20000
N#Cc1cccc(C(=O)Nc2ccc3[nH]cc(C4CCN(CC5CCCC5)CC4)c3c2)c1 [Example 87, 3-cyano-N-(3-(1-(cyclopentylmethyl)piperidin-4-yl)-1H-indol-5-yl)benzamide] | > 20000
Cc1c(NC(=O)c2cccc(C#N)c2)ccc2c1c(C1CCN(C(=O)C[C@@H](O)C(F)(F)F)CC1)cn2C [Example 89, (R)-3-cyano-N-(1,4-dimethyl-3-(1-(4,4,4-trifluoro-3-hydroxybutanoyl)-piperidin-4-yl)-1H-indol-5-yl)benzamide] | 14.2
Cn1cc(C2CCN(C(=O)C[C@@H](O)C(F)(F)F)CC2)c2cc(NC(=O)c3cccc(C#N)c3)ccc21 [Example 90, (R)-3-cyano-N-(1-methyl-3-(1-(4,4,4-trifluoro-3-hydroxybutanoyl)piperidin-4-yl)-1H-indol-5-yl)benzamide] | 13.9
Cn1cc(C2CCN(C(=O)C[C@@H](O)C(F)(F)F)CC2)c2cc(NS(=O)(=O)c3ccc(F)cc3)ccc21 [Example 91, (R)-4-fluoro-N-(1-methyl-3-(1-(4,4,4-trifluoro-3-hydroxybutanoyl)piperidin-4-yl)-1H-indol-5-yl)benzenesulfonamide] | 9.8
CC(C)C(=O)N1CCC(c2cn(C)c3ccc(NS(=O)(=O)c4ccc(F)cc4)cc23)CC1 [Example 92, 4-fluoro-N-(3-(1-isobutyrylpiperidin-4-yl)-1-methyl-1H-indol-5-yl)benzenesulfonamide] | 10.5
CC1CCN(S(=O)(=O)Nc2ccc3c(c2)c(C2CCN(C(=O)C4CCCC4)CC2)cn3C)CC1 [Example 93, N-(3-(1-(cyclopentanecarbonyl)piperidin-4-yl)-1-methyl-1H-indol-5-yl)-4-methylpiperidine-1-sulfonamide] | 4.9
Cc1c(NC(=O)c2cccc(C#N)c2)cnc2c1c(C1CCN(C(=O)C[C@@H](O)C(F)(F)F)CC1)cn2C [Example 95, (R)-3-Cyano-N-(1,4-dimethyl-3-(1-(4,4,4-trifluoro-3-hydroxybutanoyl)piperidin-4-yl)-1H-pyrrolo[2,3-b]pyridin-5-yl)benzamide] | 46.8
